Source: ChEMBL document CHEMBL1201862, “PubChem BioAssay data set” (2004)
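Cells were grown in 96-well plates and exposed to each compound for 48 hours at five concentrations; endpoints were interpolated linearly between bracketing concentrations, or set to the highest concentration if not reached. GI50: concentration for 50% inhibition of growth.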 Calls of active or inactive are those of the source. Rule as the data show it: active = GI50 up to about 1.1 µM and inactive = higher.

Experiments:
Experiment in all cases: growth of human tumour cells (NCI), 48 h
[1] = test system: OVCAR-5
[2] = test system: SF-268
[3] = test system: T47D
[4] = test system: Hs-578T
[5] = test system: HT-29
[6] = test system: SK-OV-3
[7] = test system: CAKI-1
[8] = test system: EKVX
[9] = test system: SNB-75
[10] = test system: LOX IMVI
[11] = test system: MDA-N
[12] = test system: TK-10
[13] = test system: NCI-H226
[14] = test system: OVCAR-3
[15] = test system: 786-0
[16] = test system: UACC-257
[17] = test system: HCT-116
[18] = test system: SK-MEL-5
[19] = test system: NCI-H23
[20] = test system: RXF 393

Measured: GI50

C=CCn1cnc2c(O)nc(Nc3ccccc3)nc21
inactive: [1] > 100 µM | [2] > 100 µM | [3] > 100 µM | [4] > 100 µM | [5] > 100 µM | [6] > 100 µM | [7] > 100 µM | [8] > 100 µM | [9] > 100 µM | [10] > 100 µM | [11] > 100 µM | [12] > 100 µM | [13] > 100 µM | [14] > 100 µM | [15] > 100 µM | [16] > 100 µM | [17] > 100 µM | [18] > 100 µM

Cc1oc2c(c1C)S(=O)(=O)C(C#N)C(c1ccccc1)N2 (stereo unspecified)
inactive: [1] 91.6 µM | [2] 56 µM | [3] 62.5 µM | [4] 30.9 µM | [5] 67.6 µM | [6] 86.5 µM | [7] 36.1 µM | [19] 69.5 µM | [8] > 100 µM | [9] 40.2 µM | [10] 43.8 µM | [11] 29 µM | [12] > 100 µM | [13] > 100 µM | [14] 65.6 µM | [15] 40.9 µM | [16] 56.6 µM | [17] 50 µM | [18] 32.4 µM

N#CC1Cc2cc3c(cc21)OCO3 (stereo unspecified)
inactive: [1] > 100 µM | [3] > 100 µM | [4] > 100 µM | [5] > 100 µM | [7] > 100 µM | [19] > 100 µM | [8] > 100 µM | [9] > 100 µM | [10] > 100 µM | [11] > 100 µM | [12] > 100 µM | [13] > 100 µM | [14] > 100 µM | [15] > 100 µM | [16] > 100 µM | [17] > 100 µM | [18] > 100 µM

COc1ccc(N[S+]([O-])c2ccccc2OC)cc1 (stereo unspecified)
inactive: [1] 46.5 µM | [2] 7.28 µM | [3] 4.37 µM | [4] 21.7 µM | [5] 18.1 µM | [7] 25.8 µM | [19] 40.8 µM | [8] 38.9 µM | [10] 10.3 µM | [11] 33.4 µM | [12] > 100 µM | [13] 13.4 µM | [14] 61.4 µM | [15] 43.3 µM | [16] 33.7 µM | [17] 13.9 µM | [18] 11.2 µM

O=C1CC(n2cccc2)c2cc(Br)sc21 (stereo unspecified)
inactive: [1] > 100 µM | [2] > 100 µM | [3] 48.3 µM | [4] > 100 µM | [5] > 100 µM | [6] > 100 µM | [7] > 100 µM | [19] 39.1 µM | [8] > 100 µM | [9] 7.93 µM | [10] 31.9 µM | [11] 55.6 µM | [12] > 100 µM | [13] > 100 µM | [14] > 100 µM | [15] 42 µM | [16] > 100 µM | [17] 66.7 µM | [18] > 100 µM

CCOC(=O)/C(C#N)=N\Nc1ccc(-n2c(C)nc3ccccc3c2=O)cc1
inactive: [1] > 100 µM | [2] > 100 µM | [3] 34.8 µM | [4] 59 µM | [5] > 100 µM | [6] > 100 µM | [7] > 100 µM | [19] > 100 µM | [8] 53.2 µM | [9] 63.5 µM | [10] 66.2 µM | [11] 47.3 µM | [12] > 100 µM | [13] 24.5 µM | [14] 32.7 µM | [15] > 100 µM | [16] 61.4 µM | [17] 59.6 µM | [18] 16.5 µM

C=CCCC1CCCCC/C1=N\N(C)C (stereo unspecified)
inactive: [1] > 100 µM | [2] > 100 µM | [3] > 100 µM | [4] > 100 µM | [5] > 100 µM | [6] > 100 µM | [7] > 100 µM | [19] > 100 µM | [8] > 100 µM | [9] > 100 µM | [10] > 100 µM | [11] > 100 µM | [12] > 100 µM | [13] > 100 µM | [14] > 100 µM | [15] > 100 µM | [16] > 100 µM | [17] > 100 µM | [18] > 100 µM

O=C(c1ccccn1)c1nnn2ccccc12
inactive: [1] > 100 µM | [2] > 100 µM | [3] > 100 µM | [4] > 100 µM | [5] > 100 µM | [6] > 100 µM | [7] > 100 µM | [19] > 100 µM | [8] > 100 µM | [9] > 100 µM | [10] > 100 µM | [11] > 100 µM | [12] > 100 µM | [13] > 100 µM | [14] > 100 µM | [15] > 100 µM | [16] > 100 µM | [17] > 100 µM | [18] > 100 µM

OCCN(C1=NCCN1)/[N+](=C\c1ccccn1)[CH-]c1ccccn1
inactive: [1] > 100 µM | [2] > 100 µM | [3] > 100 µM | [4] > 100 µM | [5] > 100 µM | [6] > 100 µM | [7] > 100 µM | [19] > 100 µM | [8] > 100 µM | [9] > 100 µM | [10] > 100 µM | [11] > 100 µM | [13] > 100 µM | [14] > 100 µM | [15] > 100 µM | [16] > 100 µM | [17] > 100 µM | [18] > 100 µM

Cn1c2ccccc2c(=O)c2cccc(C(=O)NC(CCCNC(=N)N)C(=O)O)c21 (stereo unspecified)
inactive: [1] > 100 µM | [2] > 100 µM | [3] > 100 µM | [4] > 100 µM | [5] > 100 µM | [6] > 100 µM | [19] > 100 µM | [8] > 100 µM | [9] > 100 µM | [10] > 100 µM | [11] > 100 µM | [12] > 100 µM | [13] > 100 µM | [14] > 100 µM | [15] > 100 µM | [16] > 100 µM | [17] > 100 µM | [18] > 100 µM

Nc1ccc(S(=O)(=O)NCCS(=O)(=O)O)cc1
inactive: [1] > 100 µM | [2] > 100 µM | [4] > 100 µM | [5] > 100 µM | [7] > 100 µM | [20] > 100 µM | [19] > 100 µM | [8] > 100 µM | [9] > 100 µM | [10] > 100 µM | [11] > 100 µM | [12] > 100 µM | [13] > 100 µM | [14] > 100 µM | [15] > 100 µM | [16] > 100 µM | [17] > 100 µM | [18] > 100 µM
